# Assay results as given in US20230017045A1, “PYRIDINE AND PYRIMIDINE CARBOXYLATE HERBICIDES AND METHODS OF USE THEREOF” (Dow AgroSciences LLC, priority 2017, published 2023).
# Tested on: test plant species
# Assay: Post-emergent herbicidal activity test (greenhouse, foliar spray, visual growth reduction)
# Type: in vivo
# Settings: post-emergence, 336 h, ALOMY: blackgrass (Alopecurus myosuroides), 140 g ai/ha, 14 days after application, read-out: Visual Growth Reduction (%) 14 Days After Application, ALOMY
# Outline: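 Seedlings were raised 7-21 d in a greenhouse under a 15 h photoperiod until the first or second true leaf. Each compound, dissolved in acetone:DMSO 97:3 and diluted into a surfactant-containing spray mixture, was then applied at 187 L/ha. Plants were subirrigated, and growth reduction was scored visually at 14 d.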
row,Structure (SMILES),pest or weed control at 140 g/ha [%]
1,"COC(=O)c1nc(-c2ccc(C(F)(F)F)nc2)c(F)cc1Cl [F92, methyl 5-chloro-3-fluoro-6′-(trifluoromethyl)-[2,3′-bipyridine]-6-carboxylate]",0 to 29
2,"COC(=O)c1nc(-c2cc(C)c(C)cc2Cl)ccc1Cl [F49, Methyl 3-chloro-6-(2-chloro-4,5-dimethylphenyl) picolinate]",0 to 29

# Same assay, conditions: post-emergence, 336 h, AMARE: redroot pigweed (Amaranthus retroflexus), 140 g ai/ha, 14 days after application, read-out: Visual Growth Reduction (%) 14 Days After Application, AMARE
row,Structure (SMILES),pest or weed control at 140 g/ha [%]
1,"COC(=O)c1nc(-c2ccc(C(F)(F)F)nc2)c(F)cc1Cl [F92, methyl 5-chloro-3-fluoro-6′-(trifluoromethyl)-[2,3′-bipyridine]-6-carboxylate]",0 to 29
2,"COC(=O)c1nc(-c2cc(C)c(C)cc2Cl)ccc1Cl [F49, Methyl 3-chloro-6-(2-chloro-4,5-dimethylphenyl) picolinate]",30 to 44

# Same assay, conditions: post-emergence, 336 h, AVEFA: wild oat (Avena fatua), 140 g ai/ha, 14 days after application, read-out: Visual Growth Reduction (%) 14 Days After Application, AVEFA
row,Structure (SMILES),pest or weed control at 140 g/ha [%]
1,"COC(=O)c1nc(-c2ccc(C(F)(F)F)nc2)c(F)cc1Cl [F92, methyl 5-chloro-3-fluoro-6′-(trifluoromethyl)-[2,3′-bipyridine]-6-carboxylate]",0 to 29
2,"COC(=O)c1nc(-c2cc(C)c(C)cc2Cl)ccc1Cl [F49, Methyl 3-chloro-6-(2-chloro-4,5-dimethylphenyl) picolinate]",0 to 29

# Same assay, conditions: post-emergence, 336 h, CHEAL: lambsquarters (Chenopodium album), 140 g ai/ha, 14 days after application, read-out: Visual Growth Reduction (%) 14 Days After Application, CHEAL
row,Structure (SMILES),pest or weed control at 140 g/ha [%]
1,"COC(=O)c1nc(-c2ccc(C(F)(F)F)nc2)c(F)cc1Cl [F92, methyl 5-chloro-3-fluoro-6′-(trifluoromethyl)-[2,3′-bipyridine]-6-carboxylate]",0 to 29
2,"COC(=O)c1nc(-c2cc(C)c(C)cc2Cl)ccc1Cl [F49, Methyl 3-chloro-6-(2-chloro-4,5-dimethylphenyl) picolinate]",45 to 59

# Same assay, conditions: post-emergence, 336 h, CIRAR: canada thistle (Cirsium arvense), 140 g ai/ha, 14 days after application, read-out: Visual Growth Reduction (%) 14 Days After Application, CIRAR
row,Structure (SMILES),pest or weed control at 140 g/ha [%]
1,"COC(=O)c1nc(-c2ccc(C(F)(F)F)nc2)c(F)cc1Cl [F92, methyl 5-chloro-3-fluoro-6′-(trifluoromethyl)-[2,3′-bipyridine]-6-carboxylate]",0 to 29
2,"COC(=O)c1nc(-c2cc(C)c(C)cc2Cl)ccc1Cl [F49, Methyl 3-chloro-6-(2-chloro-4,5-dimethylphenyl) picolinate]",0 to 29

# Same assay, conditions: post-emergence, 336 h, CYPES: yellow nutsedge (Cyperus esculentus), 140 g ai/ha, 14 days after application, read-out: Visual Growth Reduction (%) 14 Days After Application, CYPES
row,Structure (SMILES),pest or weed control at 140 g/ha [%]
1,"COC(=O)c1nc(-c2ccc(C(F)(F)F)nc2)c(F)cc1Cl [F92, methyl 5-chloro-3-fluoro-6′-(trifluoromethyl)-[2,3′-bipyridine]-6-carboxylate]",0 to 29
2,"COC(=O)c1nc(-c2cc(C)c(C)cc2Cl)ccc1Cl [F49, Methyl 3-chloro-6-(2-chloro-4,5-dimethylphenyl) picolinate]",0 to 29

# Same assay, conditions: post-emergence, 336 h, DIGSA: crabgrass (Digitaria sanguinalis), 140 g ai/ha, 14 days after application, read-out: Visual Growth Reduction (%) 14 Days After Application, DIGSA
row,Structure (SMILES),pest or weed control at 140 g/ha [%]
1,"COC(=O)c1nc(-c2ccc(C(F)(F)F)nc2)c(F)cc1Cl [F92, methyl 5-chloro-3-fluoro-6′-(trifluoromethyl)-[2,3′-bipyridine]-6-carboxylate]",30 to 44
2,"COC(=O)c1nc(-c2cc(C)c(C)cc2Cl)ccc1Cl [F49, Methyl 3-chloro-6-(2-chloro-4,5-dimethylphenyl) picolinate]",0 to 29

# Same assay, conditions: post-emergence, 336 h, ECHCG: barnyardgrass (Echinochloa crus-galli), 140 g ai/ha, 14 days after application, read-out: Visual Growth Reduction (%) 14 Days After Application, ECHCG
row,Structure (SMILES),pest or weed control at 140 g/ha [%]
1,"COC(=O)c1nc(-c2cc(F)c(C(F)(F)F)cc2Cl)ccc1Cl [F243, Methyl 3-chloro-6-(2-chloro-5-fluoro-4-(trifluoromethyl)phenyl)picolinate]",95 to 100
2,"COC(=O)c1nc(-c2ccc(C(F)(F)F)nc2)c(F)cc1Cl [F92, methyl 5-chloro-3-fluoro-6′-(trifluoromethyl)-[2,3′-bipyridine]-6-carboxylate]",0 to 29
3,"COC(=O)c1nc(-c2cc(C)c(C)cc2Cl)ccc1Cl [F49, Methyl 3-chloro-6-(2-chloro-4,5-dimethylphenyl) picolinate]",0 to 29

# Same assay, conditions: post-emergence, 336 h, IPOHE: ivy-leaf morning glory (Ipomoea hederacea), 140 g ai/ha, 14 days after application, read-out: Visual Growth Reduction (%) 14 Days After Application, IPOHE
row,Structure (SMILES),pest or weed control at 140 g/ha [%]
1,"COC(=O)c1nc(-c2cc(F)c(C(F)(F)F)cc2Cl)ccc1Cl [F243, Methyl 3-chloro-6-(2-chloro-5-fluoro-4-(trifluoromethyl)phenyl)picolinate]",95 to 100
2,"COC(=O)c1nc(-c2ccc(C(F)(F)F)nc2)c(F)cc1Cl [F92, methyl 5-chloro-3-fluoro-6′-(trifluoromethyl)-[2,3′-bipyridine]-6-carboxylate]",30 to 44
3,"COC(=O)c1nc(-c2cc(C)c(C)cc2Cl)ccc1Cl [F49, Methyl 3-chloro-6-(2-chloro-4,5-dimethylphenyl) picolinate]",0 to 29

# Same assay, conditions: post-emergence, 336 h, KCHSC: kochia (Bassia scoparia), 140 g ai/ha, 14 days after application, read-out: Visual Growth Reduction (%) 14 Days After Application, KCHSC
row,Structure (SMILES),pest or weed control at 140 g/ha [%]
1,"COC(=O)c1nc(-c2cc(F)c(C(F)(F)F)cc2Cl)ccc1Cl [F243, Methyl 3-chloro-6-(2-chloro-5-fluoro-4-(trifluoromethyl)phenyl)picolinate]",75 to 84
2,"COC(=O)c1nc(-c2ccc(C(F)(F)F)nc2)c(F)cc1Cl [F92, methyl 5-chloro-3-fluoro-6′-(trifluoromethyl)-[2,3′-bipyridine]-6-carboxylate]",0 to 29
3,"COC(=O)c1nc(-c2cc(C)c(C)cc2Cl)ccc1Cl [F49, Methyl 3-chloro-6-(2-chloro-4,5-dimethylphenyl) picolinate]",0 to 29

# Same assay, conditions: post-emergence, 336 h, ORYSA: rice (Oryza sativa), 140 g ai/ha, 14 days after application, read-out: Visual Growth Reduction (%) 14 Days After Application, ORYSA
row,Structure (SMILES),pest or weed control at 140 g/ha [%]
1,"COC(=O)c1nc(-c2cc(F)c(C(F)(F)F)cc2Cl)ccc1Cl [F243, Methyl 3-chloro-6-(2-chloro-5-fluoro-4-(trifluoromethyl)phenyl)picolinate]",0 to 29
2,"COC(=O)c1nc(-c2ccc(C(F)(F)F)nc2)c(F)cc1Cl [F92, methyl 5-chloro-3-fluoro-6′-(trifluoromethyl)-[2,3′-bipyridine]-6-carboxylate]",0 to 29
3,"COC(=O)c1nc(-c2cc(C)c(C)cc2Cl)ccc1Cl [F49, Methyl 3-chloro-6-(2-chloro-4,5-dimethylphenyl) picolinate]",0 to 29

# Same assay, conditions: post-emergence, 336 h, SETFA: giant foxtail (Setaria faberi), 140 g ai/ha, 14 days after application, read-out: Visual Growth Reduction (%) 14 Days After Application, SETFA
row,Structure (SMILES),pest or weed control at 140 g/ha [%]
1,"COC(=O)c1nc(-c2cc(F)c(C(F)(F)F)cc2Cl)ccc1Cl [F243, Methyl 3-chloro-6-(2-chloro-5-fluoro-4-(trifluoromethyl)phenyl)picolinate]",95 to 100
2,"COC(=O)c1nc(-c2ccc(C(F)(F)F)nc2)c(F)cc1Cl [F92, methyl 5-chloro-3-fluoro-6′-(trifluoromethyl)-[2,3′-bipyridine]-6-carboxylate]",0 to 29
3,"COC(=O)c1nc(-c2cc(C)c(C)cc2Cl)ccc1Cl [F49, Methyl 3-chloro-6-(2-chloro-4,5-dimethylphenyl) picolinate]",0 to 29

# Same assay, conditions: post-emergence, 336 h, SORVU: grain sorghum (Sorghum vulgare), 140 g ai/ha, 14 days after application, read-out: Visual Growth Reduction (%) 14 Days After Application, SORVU
row,Structure (SMILES),pest or weed control at 140 g/ha [%]
1,"COC(=O)c1nc(-c2cc(F)c(C(F)(F)F)cc2Cl)ccc1Cl [F243, Methyl 3-chloro-6-(2-chloro-5-fluoro-4-(trifluoromethyl)phenyl)picolinate]",95 to 100
2,"COC(=O)c1nc(-c2ccc(C(F)(F)F)nc2)c(F)cc1Cl [F92, methyl 5-chloro-3-fluoro-6′-(trifluoromethyl)-[2,3′-bipyridine]-6-carboxylate]",0 to 29
3,"COC(=O)c1nc(-c2cc(C)c(C)cc2Cl)ccc1Cl [F49, Methyl 3-chloro-6-(2-chloro-4,5-dimethylphenyl) picolinate]",0 to 29

# Same assay, conditions: post-emergence, 336 h, STEME: common chickweed (Stellaria media), 140 g ai/ha, 14 days after application, read-out: Visual Growth Reduction (%) 14 Days After Application, STEME
row,Structure (SMILES),pest or weed control at 140 g/ha [%]
1,"COC(=O)c1nc(-c2cc(F)c(C(F)(F)F)cc2Cl)ccc1Cl [F243, Methyl 3-chloro-6-(2-chloro-5-fluoro-4-(trifluoromethyl)phenyl)picolinate]",0 to 29
2,"COC(=O)c1nc(-c2ccc(C(F)(F)F)nc2)c(F)cc1Cl [F92, methyl 5-chloro-3-fluoro-6′-(trifluoromethyl)-[2,3′-bipyridine]-6-carboxylate]",0 to 29
3,"COC(=O)c1nc(-c2cc(C)c(C)cc2Cl)ccc1Cl [F49, Methyl 3-chloro-6-(2-chloro-4,5-dimethylphenyl) picolinate]",0 to 29

# Same assay, conditions: post-emergence, 336 h, TRZAS: wheat, spring (Triticum aestivum), 140 g ai/ha, 14 days after application, read-out: Visual Growth Reduction (%) 14 Days After Application, TRZAS
row,Structure (SMILES),pest or weed control at 140 g/ha [%]
1,"COC(=O)c1nc(-c2cc(F)c(C(F)(F)F)cc2Cl)ccc1Cl [F243, Methyl 3-chloro-6-(2-chloro-5-fluoro-4-(trifluoromethyl)phenyl)picolinate]",85 to 94
2,"COC(=O)c1nc(-c2ccc(C(F)(F)F)nc2)c(F)cc1Cl [F92, methyl 5-chloro-3-fluoro-6′-(trifluoromethyl)-[2,3′-bipyridine]-6-carboxylate]",0 to 29
3,"COC(=O)c1nc(-c2cc(C)c(C)cc2Cl)ccc1Cl [F49, Methyl 3-chloro-6-(2-chloro-4,5-dimethylphenyl) picolinate]",0 to 29

# Same assay, conditions: post-emergence, 336 h, blackgrass (Alopecurus myosuroides), 14 Days After Application, 140 g ai/ha, read-out: Visual Growth Reduction (%) ALOMY
row,Structure (SMILES),pest or weed control at 140 g/ha [%]
1,"COC(=O)c1nc(-c2cc(F)c(C(F)(F)F)cc2Cl)ccc1Cl [F243, Methyl 3-chloro-6-(2-chloro-5-fluoro-4-(trifluoromethyl)phenyl)picolinate]",85 to 94

# Same assay, conditions: post-emergence, 336 h, canada thistle (Cirsium arvense), 14 Days After Application, 140 g ai/ha, read-out: Visual Growth Reduction (%) CIRAR
row,Structure (SMILES),pest or weed control at 140 g/ha [%]
1,"COC(=O)c1nc(-c2cc(F)c(C(F)(F)F)cc2Cl)ccc1Cl [F243, Methyl 3-chloro-6-(2-chloro-5-fluoro-4-(trifluoromethyl)phenyl)picolinate]",95 to 100

# Same assay, conditions: post-emergence, 336 h, crabgrass (Digitaria sanguinalis), 14 Days After Application, 140 g ai/ha, read-out: Visual Growth Reduction (%) DIGSA
row,Structure (SMILES),pest or weed control at 140 g/ha [%]
1,"COC(=O)c1nc(-c2cc(F)c(C(F)(F)F)cc2Cl)ccc1Cl [F243, Methyl 3-chloro-6-(2-chloro-5-fluoro-4-(trifluoromethyl)phenyl)picolinate]",95 to 100

# Same assay, conditions: post-emergence, 336 h, lambsquarters (Chenopodium album), 14 Days After Application, 140 g ai/ha, read-out: Visual Growth Reduction (%) CHEAL
row,Structure (SMILES),pest or weed control at 140 g/ha [%]
1,"COC(=O)c1nc(-c2cc(F)c(C(F)(F)F)cc2Cl)ccc1Cl [F243, Methyl 3-chloro-6-(2-chloro-5-fluoro-4-(trifluoromethyl)phenyl)picolinate]",95 to 100

# Same assay, conditions: post-emergence, 336 h, redroot pigweed (Amaranthus retroflexus), 14 Days After Application, 140 g ai/ha, read-out: Visual Growth Reduction (%) AMARE
row,Structure (SMILES),pest or weed control at 140 g/ha [%]
1,"COC(=O)c1nc(-c2cc(F)c(C(F)(F)F)cc2Cl)ccc1Cl [F243, Methyl 3-chloro-6-(2-chloro-5-fluoro-4-(trifluoromethyl)phenyl)picolinate]",95 to 100

# Same assay, conditions: post-emergence, 336 h, wild oat (Avena fatua), 14 Days After Application, 140 g ai/ha, read-out: Visual Growth Reduction (%) AVEFA
row,Structure (SMILES),pest or weed control at 140 g/ha [%]
1,"COC(=O)c1nc(-c2cc(F)c(C(F)(F)F)cc2Cl)ccc1Cl [F243, Methyl 3-chloro-6-(2-chloro-5-fluoro-4-(trifluoromethyl)phenyl)picolinate]",75 to 84

# Same assay, conditions: post-emergence, 336 h, yellow nutsedge (Cyperus esculentus), 14 Days After Application, 140 g ai/ha, read-out: Visual Growth Reduction (%) CYPES
row,Structure (SMILES),pest or weed control at 140 g/ha [%]
1,"COC(=O)c1nc(-c2cc(F)c(C(F)(F)F)cc2Cl)ccc1Cl [F243, Methyl 3-chloro-6-(2-chloro-5-fluoro-4-(trifluoromethyl)phenyl)picolinate]",85 to 94
